Assay results published in US9210927B2, “Pesticidal compositions and processes related thereto” (Dow AgroSciences LLC, priority 2013, dated 2015).

Key:
CEW (Helicoverpa zea) = test: Bioassays on Corn Earworm (CEW), 128-well diet tray assay; assay type: in vivo; conditions: Helicoverpa zea, 168 h; percent mortality, second instar larvae, 50 μg/cm^2 on artificial diet, five to seven days, 25° C.; read-out: CEW Rating
Description: (§1) Bioassays on Beet Armyworm (“BAW”) and Corn Earworm (“CEW”) and Cabbage Looper (“CL”)
(§2) Certain molecules disclosed in this document were tested against BAW and CEW and CL using procedures described in the following examples. In the reporting of the results, the “BAW & CEW & CL Rating Table” was used (See Table Section).
Bioassays on CEW (Helicoverpa zea)
Bioassays on CEW were conducted using a 128-well diet tray assay. one to five second instar CEW larvae were placed in each well (3 mL) of the diet tray that had been previously filled with 1 mL of artificial diet to which 50 μg/cm^2 of the test compound (dissolved in 50 μL of 90:10 acetone-water mixture) had been applied (to each of eight wells) and then allowed to dry. Trays were covered with a clear self-adhesive cover, and held at 25° C., 14:10 light-dark for five to seven days. Percent mortality was recorded for the larvae in each well; activity in the eight wells was then averaged. The results are indicated in the table entitled “Table 3: Assay Results” (See Table Section).

BAW (Spodoptera exigua) = test: Bioassays on Beet Armyworm (BAW), 128-well diet tray assay; assay type: in vivo; conditions: Spodoptera exigua, 168 h, read-out: BAW Rating
Description: as §1, §2
Bioassays on BAW (Spodoptera exigua)
Bioassays on BAW were conducted using a 128-well diet tray assay. one to five second instar BAW larvae were placed in each well (3 mL) of the diet tray that had been previously filled with 1 mL of artificial diet to which 50 μg/cm^2 of the test compound (dissolved in 50 μL of 90:10 acetone-water mixture) had been applied (to each of eight wells) and then allowed to dry. Trays were covered with a clear self-adhesive cover, and held at 25° C., 14:10 light-dark for five to seven days. Percent mortality was recorded for the larvae in each well; activity in the eight wells was then averaged. The results are indicated in the table entitled “Table 3: Assay Results” (See Table Section).

With `N#Cc1cc(/C=C/C(c2cc(Cl)c(Cl)c(Cl)c2)C(F)(F)F)ccc1-n1cnc([N+](=O)[O-])n1` (stereo not drawn) [DC40, (E)-2-(3-Nitro-1H-1,2,4-triazol-1-yl)-5-(4,4,4-trifluoro-3-(3,4,5-trichlorophenyl)but-1-en-1-yl)benzonitrile] the pest or weed control at 50 µg/cm2 (CEW (Helicoverpa zea)) was 50 to 100% and the pest or weed control at 50 µg/cm2 (BAW (Spodoptera exigua)) was 50 to 100%.

Work on `N#Cc1cc(/C=C/C(c2cc(Cl)c(Cl)c(Cl)c2)C(F)(F)F)ccc1-n1cnc(N)n1` (stereo not drawn) [DC41, (E)-2-(3-Amino-1H-1,2,4-triazol-1-yl)-5-(4,4,4-trifluoro-3-(3,4,5-trichlorophenyl)but-1-en-1-yl)benzonitrile] yielded a pest or weed control at 50 µg/cm2 (CEW (Helicoverpa zea)) of 50 to 100% and a pest or weed control at 50 µg/cm2 (BAW (Spodoptera exigua)) of 50 to 100%.

In the case of `N#Cc1cc(/C=C/C(c2cc(Cl)c(Cl)c(Cl)c2)C(F)(F)F)ccc1-n1cnc(N(C(=O)C2CC2)C(=O)C2CC2)n1` (stereo not drawn) [DC42, (E)-N-(1-(2-Cyano-4-(4,4,4-trifluoro-3-(3,4,5-trichlorophenyl)but-1-en-1-yl)phenyl)-1H-1,2,4-triazol-3-yl)-N-(cyclopropanecarbonyl)cyclopropanecarboxamide], the pest or weed control at 50 µg/cm2 (CEW (Helicoverpa zea)) is reported as 50 to 100% and the pest or weed control at 50 µg/cm2 (BAW (Spodoptera exigua)) is reported as 50 to 100%.

Compound `N#Cc1cc(/C=C/C(c2cc(Cl)c(Cl)c(Cl)c2)C(F)(F)F)ccc1-n1cnc(NC(=O)C2CC2)n1` (stereo not drawn) [DC43, (E)-N-(1-(2-Cyano-4-(4,4,4-trifluoro-3-(3,4,5-trichlorophenyl)but-1-en-1-yl)phenyl)-1H-1,2,4-triazol-3-yl)cyclopropanecarboxamide] has a pest or weed control at 50 µg/cm2 (CEW (Helicoverpa zea)) of 50 to 100% and a pest or weed control at 50 µg/cm2 (BAW (Spodoptera exigua)) of 50 to 100%.

`Cc1cc(/C=C/C(c2cc(Cl)cc(Cl)c2)C(F)(F)F)cc(C#N)c1-n1cncn1` (stereo not drawn) [DC44] gave a pest or weed control at 50 µg/cm2 (CEW (Helicoverpa zea)) of 50 to 100% and a pest or weed control at 50 µg/cm2 (BAW (Spodoptera exigua)) of 50 to 100%.

Work on `Cc1cc(/C=C/C(c2cc(Cl)c(Cl)c(Cl)c2)C(F)(F)F)cc(C#N)c1-n1cncn1` (stereo not drawn) [DC45] yielded a pest or weed control at 50 µg/cm2 (CEW (Helicoverpa zea)) of 50 to 100% and a pest or weed control at 50 µg/cm2 (BAW (Spodoptera exigua)) of 50 to 100%.

Compound `N#Cc1cc(/C=C\C(c2cc(Cl)c(F)c(Cl)c2)C(F)(F)F)ccc1-n1cncn1` (stereo not drawn) [DC46] has a pest or weed control at 50 µg/cm2 (CEW (Helicoverpa zea)) of 50 to 100% and a pest or weed control at 50 µg/cm2 (BAW (Spodoptera exigua)) of 50 to 100%.

Work on `FC(F)(F)C(/C=C/c1ccc(-n2cncn2)c(Br)c1)c1cc(Cl)cc(Cl)c1` (stereo not drawn) [DC47] yielded a pest or weed control at 50 µg/cm2 (CEW (Helicoverpa zea)) of 50 to 100% and a pest or weed control at 50 µg/cm2 (BAW (Spodoptera exigua)) of 50 to 100%.

Work on `Fc1cc(/C=C/C(c2cc(Cl)cc(Cl)c2)C(F)(F)F)ccc1-n1cncn1` (stereo not drawn) [DC48] yielded a pest or weed control at 50 µg/cm2 (CEW (Helicoverpa zea)) of 50 to 100% and a pest or weed control at 50 µg/cm2 (BAW (Spodoptera exigua)) of 50 to 100%.

Compound `FC(F)(F)C(/C=C/c1ccc(-n2cncn2)c(Cl)c1)c1cc(Cl)c(Cl)c(Cl)c1` (stereo not drawn) [DC49] has a pest or weed control at 50 µg/cm2 (CEW (Helicoverpa zea)) of 50 to 100% and a pest or weed control at 50 µg/cm2 (BAW (Spodoptera exigua)) of 50 to 100%.

In the case of `FC(F)(F)C(/C=C/c1ccc(-n2cncn2)c(Cl)c1)c1cc(Cl)cc(Cl)c1` (stereo not drawn) [DC50], the pest or weed control at 50 µg/cm2 (CEW (Helicoverpa zea)) is reported as 50 to 100% and the pest or weed control at 50 µg/cm2 (BAW (Spodoptera exigua)) is reported as 50 to 100%.

With `FC(F)(F)c1cc(/C=C/C(c2cc(Cl)cc(Cl)c2)C(F)(F)F)ccc1-n1cncn1` (stereo not drawn) [DC51] the pest or weed control at 50 µg/cm2 (CEW (Helicoverpa zea)) was 50 to 100% and the pest or weed control at 50 µg/cm2 (BAW (Spodoptera exigua)) was 50 to 100%.

Compound `CNc1cc(/C=C/C(c2cc(Cl)cc(Cl)c2)C(F)(F)F)ccc1-n1cncn1` (stereo not drawn) [DC57, (E)-5-(3-(3,5-Dichlorophenyl)-4,4,4-trifluorobut-1-en-1-yl)-N-methyl-2-(1H-1,2,4-triazol-1-yl)aniline] has a pest or weed control at 50 µg/cm2 (CEW (Helicoverpa zea)) of 50 to 100% and a pest or weed control at 50 µg/cm2 (BAW (Spodoptera exigua)) of 50 to 100%.

`CCOC(=O)c1cc(/C=C/C(c2cc(Cl)cc(Cl)c2)C(F)(F)F)ccc1-n1cncn1` (stereo not drawn) [DC60] showed a pest or weed control at 50 µg/cm2 (CEW (Helicoverpa zea)) of 50 to 100% and a pest or weed control at 50 µg/cm2 (BAW (Spodoptera exigua)) of 50 to 100%.

Compound `Cc1cc(/C=C/C(c2cc(Cl)cc(Cl)c2)C(F)(F)F)ccc1-n1cncn1` (stereo not drawn) [DC62] has a pest or weed control at 50 µg/cm2 (CEW (Helicoverpa zea)) of 50 to 100% and a pest or weed control at 50 µg/cm2 (BAW (Spodoptera exigua)) of 50 to 100%.

Work on `Cc1cc(/C=C/C(c2cc(Cl)c(Cl)c(Cl)c2)C(F)(F)F)ccc1-n1cncn1` (stereo not drawn) [DC63] yielded a pest or weed control at 50 µg/cm2 (CEW (Helicoverpa zea)) of 50 to 100% and a pest or weed control at 50 µg/cm2 (BAW (Spodoptera exigua)) of 50 to 100%.

With `FC(F)(F)C(/C=C/c1ccc(-n2cncn2)cc1Cl)c1cc(Cl)c(Cl)c(Cl)c1` (stereo not drawn) [DC66] the pest or weed control at 50 µg/cm2 (CEW (Helicoverpa zea)) was 50 to 100% and the pest or weed control at 50 µg/cm2 (BAW (Spodoptera exigua)) was 50 to 100%.

Compound `FC(F)(F)C(/C=C/c1ccc(-n2cncn2)cc1Cl)c1cc(Cl)cc(Cl)c1` (stereo not drawn) [DC67] has a pest or weed control at 50 µg/cm2 (CEW (Helicoverpa zea)) of 50 to 100% and a pest or weed control at 50 µg/cm2 (BAW (Spodoptera exigua)) of 50 to 100%.
